Results on three compounds are retold here after patent publication US12312325B2, “Methods and compounds useful in the synthesis of an AAK1 inhibitor” (Lexicon Pharmaceuticals, Inc., priority 2022, dated 2025).

For data set [1], the system named is PC12 cells. Conditions: treatment with the kinase inhibitor; cited from earlier work.
Data set [2] in a line: water solubility. It counts as physicochemical. As to conditions: at 25° C. The method, then: (§1) Instead, the melting of Form I is observed to recrystallize to another, metastable form having a melting point of about 172.5° C.
Data set [3] in a line: storage stability of the crystalline form. As to conditions: stored at 40° C. and 75% relative humidity for up to four weeks. Format: physicochemical. The method, then: as §1

Where a name gives a salt, the structure may show the parent alone.

For the compound `COC(=O)[C@@]1(O)C[C@H]2O[C@]1(C)n1c3ccccc3c3c4c(c5c6ccccc6n2c5c31)C(=O)NC4` [Compound K252a, K252a], in data set [1], the “Neuregulin-1 induced neurite outgrowth” value is given as “potentiation of Neuregulin-1 induced neurite outgrowth”.
Compound `CC(C)C[C@](C)(N)COc1ccc(-c2ccnc(C(F)F)c2)nc1C(F)F` [Compound K, ((S)-1-((2′,6-bis(difluoromethyl)-[2,4′-bipyridin]-5-yl)oxy)-2,4-dimethylpentan-2-aminiumdihydrogen phosphate] returned a water solubility in data set [2] (listed as Form I) of 26.8 mg/mL. Besides, the “stability on storage (form, morphology, purity)” value in data set [3] is listed as “neither the form itself, its morphology, nor its purity changed”.
Turning to `CC(C)C[C@](C)(N)COc1ccc(-c2ccnc(C(F)F)c2)nc1C(F)F` [Compound S, (S)-1-((2′,6-bis(difluoromethyl)-[2,4′-bipyridin]-5-yl)oxy)-2,4-dimethylpentan-2-amine hydrochloride], the water solubility in data set [2] (listed as hydrochloride salt of Compound J, hydrochloride) is given as 2.9 mg/mL.
